The results in this text go back to the supplement of paper PMC10307832.

What all share (test): relative viability (nuclei count vs DMSO), 5 days (fraction); higher = more cells survive
Compound in the assay “CAP-232 + Tozasertib”: C[C@H]([C@@H](C(=O)N)NC(=O)[C@@H]1CSSC[C@@H](C(=O)N[C@H](C(=O)N[C@@H](C(=O)N[C@H](C(=O)N1)CCCCN)CC2=CNC3=CC=CC=C32)CC4=CC=C(C=C4)O)NC(=O)[C@@H](CC5=CC=CC=C5)N)O [CAP-232] + Cc1cc(Nc2cc(N3CCN(C)CC3)nc(Sc3ccc(NC(=O)C4CC4)cc3)n2)n[nH]1 [Tozasertib] (partner 0.1 µM)
A digest of the protocol:
(§1)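 Nuclei were stained with Hoechst during a one-step fixation (final 0.05% Triton X-100, 1% formaldehyde, 1 ug/ml Hoechst) carried out 5 days after dosing, then counted on 4× images. The cells, lung cancer lines in 1536-well plates, had been dosed by pin tool the day after seeding with one drug alone or a fixed anchor-drug dose plus five library-drug doses (not always all listed) in √10 steps. Relative viability is the nuclei count in treated wells divided by that in vehicle wells, and each value is the median of duplicate plates.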

Compound in the assay “CAP-232 + OSI-027”: C[C@H]([C@@H](C(=O)N)NC(=O)[C@@H]1CSSC[C@@H](C(=O)N[C@H](C(=O)N[C@@H](C(=O)N[C@H](C(=O)N1)CCCCN)CC2=CNC3=CC=CC=C32)CC4=CC=C(C=C4)O)NC(=O)[C@@H](CC5=CC=CC=C5)N)O [CAP-232] + COc1cccc2cc(-c3nc([C@H]4CC[C@H](C(=O)O)CC4)n4ncnc(N)c34)[nH]c12 [OSI-027] (partner 0.5 µM)
A digest of the protocol: as §1

Compound in the assay “CAP-232 + Pemetrexed”: C[C@H]([C@@H](C(=O)N)NC(=O)[C@@H]1CSSC[C@@H](C(=O)N[C@H](C(=O)N[C@@H](C(=O)N[C@H](C(=O)N1)CCCCN)CC2=CNC3=CC=CC=C32)CC4=CC=C(C=C4)O)NC(=O)[C@@H](CC5=CC=CC=C5)N)O [CAP-232] + Nc1nc2[nH]cc(CCc3ccc(C(=O)N[C@@H](CCC(=O)O)C(=O)O)cc3)c2c(=O)[nH]1 [Pemetrexed] (partner 0.2 µM)
A digest of the protocol: as §1

Compound in the assay “CAP-232 + Navitoclax”: C[C@H]([C@@H](C(=O)N)NC(=O)[C@@H]1CSSC[C@@H](C(=O)N[C@H](C(=O)N[C@@H](C(=O)N[C@H](C(=O)N1)CCCCN)CC2=CNC3=CC=CC=C32)CC4=CC=C(C=C4)O)NC(=O)[C@@H](CC5=CC=CC=C5)N)O [CAP-232] + CC1(C)CCC(c2ccc(Cl)cc2)=C(CN2CCN(c3ccc(C(=O)NS(=O)(=O)c4ccc(N[C@H](CCN5CCOCC5)CSc5ccccc5)c(S(=O)(=O)C(F)(F)F)c4)cc3)CC2)C1 [Navitoclax] (partner 0.5 µM)
A digest of the protocol:
as §1

Compound in the assay “CAP-232 + Foretinib”: C[C@H]([C@@H](C(=O)N)NC(=O)[C@@H]1CSSC[C@@H](C(=O)N[C@H](C(=O)N[C@@H](C(=O)N[C@H](C(=O)N1)CCCCN)CC2=CNC3=CC=CC=C32)CC4=CC=C(C=C4)O)NC(=O)[C@@H](CC5=CC=CC=C5)N)O [CAP-232] + COc1cc2c(Oc3ccc(NC(=O)C4(C(=O)Nc5ccc(F)cc5)CC4)cc3F)ccnc2cc1OCCCN1CCOCC1 [Foretinib] (partner 0.25 µM)
A digest of the protocol:
as §1

In the case of LK-2, the relative viability is 0.147 with CAP-232 + Tozasertib (first compound 0.4 µM); 0.199 with CAP-232 + Tozasertib (first compound 1.265 µM); 0.163 with CAP-232 + Tozasertib (first compound 4 µM); 0.147 in the assay with CAP-232 + Tozasertib (first compound 12.65 µM); 0.197 in the assay with CAP-232 + OSI-027 (first compound 0.4 µM); 0.18 in the assay with CAP-232 + OSI-027 (first compound 1.265 µM). The relative viability worked out at 0.231 with CAP-232 + OSI-027 (first compound 4 µM); 0.175 with CAP-232 + OSI-027 (first compound 12.65 µM); 0.325 with CAP-232 + Pemetrexed (first compound 0.4 µM); 0.284 with CAP-232 + Pemetrexed (first compound 1.265 µM); 0.326 with CAP-232 + Pemetrexed (first compound 4 µM); 0.294 in the assay with CAP-232 + Pemetrexed (first compound 12.65 µM). Further, the relative viability with CAP-232 + Navitoclax (first compound 0.4 µM) was determined as 0.733; with CAP-232 + Navitoclax (first compound 1.265 µM), 0.791; with CAP-232 + Navitoclax (first compound 4 µM) it was 1.01; in the assay with CAP-232 + Navitoclax (first compound 12.65 µM) it was 0.622; in the assay with CAP-232 + Foretinib (first compound 0.4 µM), 1.4; in the assay with CAP-232 + Foretinib (first compound 1.265 µM), 1.22. Besides, the results for the relative viability with CAP-232 + Foretinib (first compound 4 µM) and in the assay with CAP-232 + Foretinib (first compound 12.65 µM) were 1.54 and 1.19, respectively.

On to LOU-NH91, for which the relative viability worked out at 0.574 with CAP-232 + Tozasertib (first compound 0.4 µM); 0.68 with CAP-232 + Tozasertib (first compound 1.265 µM); 0.618 with CAP-232 + Tozasertib (first compound 4 µM); 0.511 with CAP-232 + Tozasertib (first compound 12.65 µM); 0.756 in the assay with CAP-232 + OSI-027 (first compound 0.4 µM); 0.775 with CAP-232 + OSI-027 (first compound 1.265 µM). The relative viability with CAP-232 + OSI-027 (first compound 4 µM) stood at 0.72; in the assay with CAP-232 + OSI-027 (first compound 12.65 µM), 0.675; with CAP-232 + Pemetrexed (first compound 0.4 µM) it was 0.473; in the assay with CAP-232 + Pemetrexed (first compound 1.265 µM), 0.378; with CAP-232 + Pemetrexed (first compound 4 µM), 0.392; with CAP-232 + Pemetrexed (first compound 12.65 µM), 0.275. Moreover, the relative viability stood at 0.729 in the assay with CAP-232 + Navitoclax (first compound 0.4 µM); 0.734 with CAP-232 + Navitoclax (first compound 1.265 µM); 0.665 with CAP-232 + Navitoclax (first compound 4 µM); 0.437 in the assay with CAP-232 + Navitoclax (first compound 12.65 µM); 0.994 with CAP-232 + Foretinib (first compound 0.4 µM); 0.903 with CAP-232 + Foretinib (first compound 1.265 µM). Moreover, the relative viability in the assay with CAP-232 + Foretinib (first compound 4 µM) was 0.86; with CAP-232 + Foretinib (first compound 12.65 µM), 0.919.

For LU99A, the relative viability in the assay with CAP-232 + Tozasertib (first compound 0.4 µM) amounted to 0.253; with CAP-232 + Tozasertib (first compound 1.265 µM), 0.263; with CAP-232 + Tozasertib (first compound 4 µM), 0.296; with CAP-232 + Tozasertib (first compound 12.65 µM) it was 0.287; with CAP-232 + OSI-027 (first compound 0.4 µM), 0.263; with CAP-232 + OSI-027 (first compound 1.265 µM), 0.267. Moreover, the relative viability in the assay with CAP-232 + OSI-027 (first compound 4 µM) was found to be 0.276; with CAP-232 + OSI-027 (first compound 12.65 µM), 0.313; in the assay with CAP-232 + Pemetrexed (first compound 0.4 µM), 0.181; in the assay with CAP-232 + Pemetrexed (first compound 1.265 µM), 0.139; with CAP-232 + Pemetrexed (first compound 4 µM), 0.182; with CAP-232 + Pemetrexed (first compound 12.65 µM) it was 0.177. Moreover, the relative viability with CAP-232 + Navitoclax (first compound 0.4 µM) was 1.03; in the assay with CAP-232 + Navitoclax (first compound 1.265 µM) it was 0.818; in the assay with CAP-232 + Navitoclax (first compound 4 µM) it was 0.864; in the assay with CAP-232 + Navitoclax (first compound 12.65 µM), 0.78; with CAP-232 + Foretinib (first compound 0.4 µM), 0.811; with CAP-232 + Foretinib (first compound 1.265 µM), 0.787. Further, the relative viability came to 0.977 with CAP-232 + Foretinib (first compound 4 µM) and 0.736 with CAP-232 + Foretinib (first compound 12.65 µM).

On to LXF-289, for which the relative viability in the assay with CAP-232 + Tozasertib (first compound 0.4 µM) turned out to be 0.206; with CAP-232 + Tozasertib (first compound 1.265 µM) it was 0.176; with CAP-232 + Tozasertib (first compound 4 µM), 0.213; in the assay with CAP-232 + Tozasertib (first compound 12.65 µM), 0.149; with CAP-232 + OSI-027 (first compound 0.4 µM) it was 0.824; with CAP-232 + OSI-027 (first compound 1.265 µM) it was 0.721. Besides, the relative viability is 0.805 with CAP-232 + OSI-027 (first compound 4 µM); 0.741 with CAP-232 + OSI-027 (first compound 12.65 µM); 1.05 with CAP-232 + Pemetrexed (first compound 0.4 µM); 0.839 in the assay with CAP-232 + Pemetrexed (first compound 1.265 µM); 0.904 with CAP-232 + Pemetrexed (first compound 4 µM); 0.958 with CAP-232 + Pemetrexed (first compound 12.65 µM). Moreover, the relative viability amounted to 0.998 with CAP-232 + Navitoclax (first compound 0.4 µM); 0.956 with CAP-232 + Navitoclax (first compound 1.265 µM); 0.964 with CAP-232 + Navitoclax (first compound 4 µM); 0.959 with CAP-232 + Navitoclax (first compound 12.65 µM); 0.985 in the assay with CAP-232 + Foretinib (first compound 0.4 µM); 0.965 with CAP-232 + Foretinib (first compound 1.265 µM). Further, the figures for the relative viability with CAP-232 + Foretinib (first compound 4 µM) and with CAP-232 + Foretinib (first compound 12.65 µM) were 1.01 and 0.995, respectively.
